Source: patent US9353090B2, “Heterocyclic carboxylic acids as activators of soluble guanylate cyclase” (Boehringer Ingelheim International GmbH, priority 2014, dated 2016)
In brackets after ≈: the same amount, converted by molar mass.

Key:
[1] = physchem; details: kinetic from dmso stock
[2] = Human liver microsome (HLM) metabolic stability assay; assay type: in vitro ADME; details: human liver microsomes
Summary of the method: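 Remaining parent measured by LC/MS/MS (ESI, MRM) at 5, 15, 30 and 60 min relative to 0 min. Incubation: 1 uM compound, HLMs, NADPH-started, 37° C., 60 min total, single replicate. Slope of ln(% remaining) gives t1/2 = 0.693/slope, then CLint, CLh and % Qh.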

[3] = molecular target: human soluble guanylate cyclase alpha 1 and beta 1 subunits (sGC) (Homo sapiens (Human), UniProt Q02108+Q02153); experiment: sGC cellular activator assay (cGMP, HTRF), in the presence and absence of 50% human serum; assay type: cell-based; details: CHO cells stably expressing human sGC alpha 1/beta 1, preincubated with 40 microM ODQ; cGMP by HTRF; Table 2 does not state whether with or without 50% human serum
Sequence of human soluble guanylate cyclase alpha 1 and beta 1 subunits (sGC) (Q02108 whole entry partner): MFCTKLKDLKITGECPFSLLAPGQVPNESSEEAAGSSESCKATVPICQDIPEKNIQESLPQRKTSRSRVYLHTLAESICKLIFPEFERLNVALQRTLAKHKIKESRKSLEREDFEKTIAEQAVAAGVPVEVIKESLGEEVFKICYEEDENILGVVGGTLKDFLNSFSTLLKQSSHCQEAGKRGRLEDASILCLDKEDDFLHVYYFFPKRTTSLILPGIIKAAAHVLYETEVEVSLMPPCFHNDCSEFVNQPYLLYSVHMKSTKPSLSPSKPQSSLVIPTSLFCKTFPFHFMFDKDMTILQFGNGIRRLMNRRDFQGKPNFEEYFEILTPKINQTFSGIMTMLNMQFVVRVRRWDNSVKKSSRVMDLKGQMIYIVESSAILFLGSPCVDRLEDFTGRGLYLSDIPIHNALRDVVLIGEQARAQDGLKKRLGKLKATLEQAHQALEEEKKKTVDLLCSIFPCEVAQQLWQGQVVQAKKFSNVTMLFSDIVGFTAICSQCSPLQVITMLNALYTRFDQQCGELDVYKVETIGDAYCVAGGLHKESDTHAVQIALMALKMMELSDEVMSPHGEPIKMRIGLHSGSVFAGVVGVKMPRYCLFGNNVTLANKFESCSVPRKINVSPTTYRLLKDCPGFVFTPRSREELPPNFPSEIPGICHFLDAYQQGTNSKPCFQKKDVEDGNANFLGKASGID
Sequence of human soluble guanylate cyclase alpha 1 and beta 1 subunits (sGC) (Q02153 whole entry): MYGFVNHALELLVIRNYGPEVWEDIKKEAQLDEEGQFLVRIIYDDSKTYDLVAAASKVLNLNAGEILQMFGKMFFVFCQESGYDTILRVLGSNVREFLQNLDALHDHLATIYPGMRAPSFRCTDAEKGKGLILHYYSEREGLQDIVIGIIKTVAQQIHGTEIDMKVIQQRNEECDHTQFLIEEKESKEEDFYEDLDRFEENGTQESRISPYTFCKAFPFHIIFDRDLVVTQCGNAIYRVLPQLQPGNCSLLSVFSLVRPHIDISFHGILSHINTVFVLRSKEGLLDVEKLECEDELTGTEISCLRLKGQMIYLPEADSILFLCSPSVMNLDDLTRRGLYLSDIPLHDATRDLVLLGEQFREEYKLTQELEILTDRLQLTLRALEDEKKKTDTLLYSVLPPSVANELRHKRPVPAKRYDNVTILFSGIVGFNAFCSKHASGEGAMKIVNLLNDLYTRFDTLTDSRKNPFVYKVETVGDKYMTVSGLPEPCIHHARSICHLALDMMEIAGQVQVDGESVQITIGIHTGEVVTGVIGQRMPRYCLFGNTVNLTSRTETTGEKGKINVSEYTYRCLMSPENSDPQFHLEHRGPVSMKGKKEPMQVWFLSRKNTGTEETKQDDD
Summary of the method: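 First, CHO-sGC (human α1β1) cells get 1 h ODQ at 40 microM with IBMX and 0.1% BSA. Finally, cGMP is quantified by HTRF and EC50 computed.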

[4] = pH 2.2, aqueous buffer, Solubility (pH 2.2)
[5] = pH 4.5, aqueous buffer, Solubility (pH 4.5)
[6] = pH 6.8, aqueous buffer, Solubility (pH 6.8)

Row | SMILES | solubility at 24 h [1, 4] | solubility at 24 h [1, 5] | solubility at 24 h [1, 6] | Metabolic stability (Qh %), % hepatic blood flow [2] | EC50 [3]
1 | Cc1cccc(-c2csc(N3CC[C@@]4(C(=O)O)C[C@H]4C3)n2)c1OCc1ccc2c(c1C)CCN(C1CCOC1)CC2 (some centres unmarked) [Compound 106] | 130 µg/mL (≈ 227 µM) | 66 µg/mL (≈ 115 µM) | 44 µg/mL (≈ 76.7 µM) | 39% | 5 nM
2 | Cc1ccc(OCc2ccc3c(c2)CCN(C2CCOCC2)C3)c(-c2csc(N3CC[C@@]4(C(=O)O)C[C@H]4C3)n2)c1 [Compound 110] | 110 µg/mL (≈ 197 µM) | 54 µg/mL (≈ 96.5 µM) | 0.58 µg/mL (≈ 1.04 µM) | <24% | 17 nM
3 | Cc1ccc(OCc2ccc3c(c2)CCN(CC2COCCO2)C3)c(-c2csc(N3CC[C@@]4(C(=O)O)C[C@H]4C3)n2)c1 (some centres unmarked) [Compound 112] | 120 µg/mL (≈ 208 µM) | 55 µg/mL (≈ 95.5 µM) | 8.1 µg/mL (≈ 14.1 µM) | <24% | 2 nM
4 | Cc1ccc(OCc2ccc3c(c2)CCN(C2CCCOC2)C3)c(-c2csc(N3CC[C@@]4(C(=O)O)C[C@H]4C3)n2)c1 (some centres unmarked) [Compound 113] | 130 µg/mL (≈ 232 µM) | 36 µg/mL (≈ 64.3 µM) | 2.7 µg/mL (≈ 4.82 µM) | <24% | 5 nM
5 | Cc1ccc(OCc2ccc3c(c2)CCN(C2CCOC2)C3)c(-c2csc(N3CC[C@@]4(C(=O)O)C[C@H]4C3)n2)c1 (some centres unmarked) [Compound 114] | 120 µg/mL (≈ 220 µM) | 38 µg/mL (≈ 69.6 µM) | 5 µg/mL (≈ 9.16 µM) | <24% | 7 nM
6 | Cc1ccc(OCc2ccc3c(c2C)CCN(C2CCOCC2)C3)c(-c2csc(N3CC[C@@]4(C(=O)O)C[C@H]4C3)n2)c1 [Compound 115] | 130 µg/mL (≈ 227 µM) | 36 µg/mL (≈ 62.7 µM) | 5.1 µg/mL (≈ 8.89 µM) | <24% | 11 nM
7 | Cc1ccc(OCc2ccc3c(c2C)CCN(C2COC2)C3)c(-c2csc(N3CC[C@@]4(C(=O)O)C[C@H]4C3)n2)c1 [Compound 116] | 140 µg/mL (≈ 257 µM) | 11 µg/mL (≈ 20.2 µM) | 6 µg/mL (≈ 11 µM) | <24% | 35 nM
8 | Cc1ccc(OCc2ccc3c(c2C)CCN(CC2COCCO2)C3)c(-c2csc(N3CC[C@@]4(C(=O)O)C[C@H]4C3)n2)c1 (some centres unmarked) [Compound 117] | 120 µg/mL (≈ 203 µM) | 42 µg/mL (≈ 71.2 µM) | 3.4 µg/mL (≈ 5.77 µM) | 27% | 2 nM
9 | Cc1ccc(OCc2ccc3c(c2C)CCN(C2CCCOC2)C3)c(-c2csc(N3CC[C@@]4(C(=O)O)C[C@H]4C3)n2)c1 (some centres unmarked) [Compound 118] | 120 µg/mL (≈ 209 µM) | 21 µg/mL (≈ 36.6 µM) | < 0.1 µg/mL | 34% | 4 nM
10 | Cc1ccc(OCc2ccc3c(c2C)CCN(C2CCOC2)C3)c(-c2csc(N3CC[C@@]4(C(=O)O)C[C@H]4C3)n2)c1 (some centres unmarked) [Compound 119] | 120 µg/mL (≈ 214 µM) | 18 µg/mL (≈ 32.2 µM) | 1.3 µg/mL (≈ 2.32 µM) | <24% | 3 nM
11 | Cc1ccc(OCc2cc(C)c3c(c2)CCN(CC2COCCO2)C3)c(-c2csc(N3CC[C@@]4(C(=O)O)C[C@H]4C3)n2)c1 (some centres unmarked) [Compound 120] | 130 µg/mL (≈ 220 µM) | 27 µg/mL (≈ 45.8 µM) | 2.2 µg/mL (≈ 3.73 µM) | <24% | 6 nM
12 | Cc1ccc(OCc2cc(C)c3c(c2)CCN(C2CCOCC2)C3)c(-c2csc(N3CC[C@@]4(C(=O)O)C[C@H]4C3)n2)c1 [Compound 123] | 120 µg/mL (≈ 209 µM) | 32 µg/mL (≈ 55.8 µM) | 3.3 µg/mL (≈ 5.75 µM) | <24% | 10 nM
13 | Cc1ccc(OCc2cc(C)c3c(c2)CCN(C2COC2)C3)c(-c2csc(N3CC[C@@]4(C(=O)O)C[C@H]4C3)n2)c1 [Compound 124] | 120 µg/mL (≈ 220 µM) | 3.7 µg/mL (≈ 6.78 µM) | 4.9 µg/mL (≈ 8.98 µM) | 31% | 14 nM
14 | Cc1ccc(OCc2cc(C)c3c(c2C)CCN(C2CCOCC2)C3)c(-c2csc(N3CC[C@@]4(C(=O)O)C[C@H]4C3)n2)c1 [Compound 125] | 140 µg/mL (≈ 238 µM) | 20 µg/mL (≈ 34 µM) | 1.2 µg/mL (≈ 2.04 µM) | <24% | 23 nM
15 | Cc1ccc(OCc2cc(C)c3c(c2C)CCN(C2COC2)C3)c(-c2csc(N3CC[C@@]4(C(=O)O)C[C@H]4C3)n2)c1 [Compound 126] | 130 µg/mL (≈ 232 µM) | 2.8 µg/mL (≈ 5 µM) | 1.8 µg/mL (≈ 3.22 µM) | <24% | 44 nM
16 | Cc1ccc(OCc2cc(C)c3c(c2C)CCN(CC2COCCO2)C3)c(-c2csc(N3CC[C@@]4(C(=O)O)C[C@H]4C3)n2)c1 (some centres unmarked) [Compound 127] | 130 µg/mL (≈ 215 µM) | 17 µg/mL (≈ 28.2 µM) | 0.77 µg/mL (≈ 1.28 µM) | <24% | 3 nM
17 | Cc1ccc(OCc2cc(C)c3c(c2C)CCN(C2CCCOC2)C3)c(-c2csc(N3CC[C@@]4(C(=O)O)C[C@H]4C3)n2)c1 (some centres unmarked) [Compound 128] | 120 µg/mL (≈ 204 µM) | 6.3 µg/mL (≈ 10.7 µM) | 0.3 µg/mL (≈ 0.51 µM) | <24% | 9 nM
18 | Cc1ccc(OCc2cc(C)c3c(c2C)CCN(C2CCOC2)C3)c(-c2csc(N3CC[C@@]4(C(=O)O)C[C@H]4C3)n2)c1 (some centres unmarked) [Compound 129] | 120 µg/mL (≈ 209 µM) | 7.7 µg/mL (≈ 13.4 µM) | 0.49 µg/mL (≈ 0.854 µM) | <24% | 6 nM
19 | Cc1ccc(OCc2ccc3c(c2C)CCN(C2CCOCC2)CC3)c(-c2csc(N3CC[C@@]4(C(=O)O)C[C@H]4C3)n2)c1 [Compound 130] | 120 µg/mL (≈ 204 µM) | 20 µg/mL (≈ 34 µM) | 2.9 µg/mL (≈ 4.93 µM) | <24% | 6 nM
20 | Cc1ccc(OCc2ccc3c(c2C)CCN(CC2COCCO2)CC3)c(-c2csc(N3CC[C@@]4(C(=O)O)C[C@H]4C3)n2)c1 (some centres unmarked) [Compound 132] | 110 µg/mL (≈ 182 µM) | 23 µg/mL (≈ 38.1 µM) | 3.1 µg/mL (≈ 5.13 µM) | 46% | 22 nM
21 | Cc1ccc(OCc2ccc3c(c2C)CCN(C2CCOC2)CC3)c(-c2csc(N3CC[C@@]4(C(=O)O)C[C@H]4C3)n2)c1 (some centres unmarked) [Compound 133] | 90 µg/mL (≈ 157 µM) | 12 µg/mL (≈ 20.9 µM) | 1.6 µg/mL (≈ 2.79 µM) | 43% | 18 nM
22 | Cc1ccc(OCc2ccc3c(c2C)CCN(C2CCCOC2)CC3)c(-c2csc(N3CC[C@@]4(C(=O)O)C[C@H]4C3)n2)c1 (some centres unmarked) [Compound 134] | 110 µg/mL (≈ 187 µM) | 8.5 µg/mL (≈ 14.5 µM) | 0.95 µg/mL (≈ 1.62 µM) | 53% | 11 nM
23 | Cc1cccc(-c2csc(N3C[C@@H]4C[C@]4(C(=O)O)C3)n2)c1OCc1ccc2c(c1)CCN(C1CCOCC1)C2 [Compound 135] | 100 µg/mL (≈ 183 µM) | 70 µg/mL (≈ 128 µM) | 56 µg/mL (≈ 103 µM) | <24% | 39 nM
24 | Cc1cccc(-c2csc(N3C[C@@H]4C[C@]4(C(=O)O)C3)n2)c1OCc1ccc2c(c1C)CCN(C1CCOCC1)C2 [Compound 136] | 110 µg/mL (≈ 197 µM) | 76 µg/mL (≈ 136 µM) | 62 µg/mL (≈ 111 µM) | <24% | 18 nM
25 | Cc1cccc(-c2csc(N3C[C@@H]4C[C@]4(C(=O)O)C3)n2)c1OCc1ccc2c(c1C)CCN(C1CCC1)C2 [Compound 137] | 100 µg/mL (≈ 189 µM) | 71 µg/mL (≈ 134 µM) | 51 µg/mL (≈ 96.3 µM) | 32% | 67 nM
